Source: patent US8969386B2, “Modulators of CFTR” (Vertex Pharmaceuticals Incorporated, priority 2007, dated 2015)

Biological target: T1, ΔF508-CFTR (Homo sapiens, UniProt P13569, DEL508-508)
T1 construct: expressed in transfected cells
Assay: ΔF508-CFTR correction, membrane potential optical (FRET/VIPR) assay
Assay type: cell-based
Conditions: NIH3T3 mouse fibroblasts stably expressing ΔF508-CFTR; for Emax: read-out: % Efficacy
Excerpt: Assays for Detecting and Measuring ΔF508-CFTR Correction Properties of Compounds
Membrane potential optical methods for assaying ΔF508-CFTR modulation properties of compounds
The optical membrane potential assay utilized voltage-sensitive FRET sensors described by Gonzalez and Tsien (See Gonzalez, J. E. and R. Y. Tsien (1995) “Voltage sensing by fluorescence resonance energy transfer in single cells” Biophys J 69(4): 1272-80, and Gonzalez, J. E. and R. Y. Tsien (1997) “Improved indicators of cell membrane potential that use fluorescence resonance energy transfer” Chem Biol 4(4): 269-77) in combination with instrumentation for measuring fluorescence changes such as the Voltage/Ion Probe Reader (VIPR) (See Gonzalez, J. E., K. Oades, et al. (1999) “Cell-based assays and instrumentation for screening ion-channel targets” Drug Discov Today 4(9): 431-439).
These voltage sensitive assays are based on the change in fluorescence resonant energy transfer (FRET) between the membrane-soluble, voltage-sensitive dye, DiSBAC2(3), and a fluorescent phospholipid, CC2-DMPE, which is attached to the outer leaflet of the plasma membrane and acts as a FRET donor. Changes in membrane potential (Vm) cause the negatively charged DiSBAC2(3) to redistribute across the plasma membrane and the amount of energy transfer from CC2-DMPE changes accordingly. The changes in fluorescence emission were monitored using VIPR™ II, which is an integrated liquid handler and fluorescent detector designed to conduct cell-based screens in 96- or 384-well microtiter plates.
1. Identification of Correction Compounds
To identify small molecules that correct the trafficking defect associated with ΔF508-CFTR; a single-addition HTS assay format was developed. The cells were incubated in serum-free medium for 16 hrs at 37° C. in the presence or absence (negative control) of test compound. As a positive control, cells plated in 384-well plates were incubated for 16 hrs at 27° C. to “temperature-correct” ΔF508-CFTR. The cells were subsequently rinsed 3× with Krebs Ringers solution and loaded with the voltage-sensitive dyes. To activate ΔF508-CFTR, 10 μM forskolin and the CFTR potentiator, genistein (20 μM), were added along with Cl^−-free medium to each well. The addition of Cl^−-free medium promoted Cl^− efflux in response to ΔF508-CFTR activation and the resulting membrane depolarization was optically monitored using the FRET-based voltage-sensor dyes.
NIH3T3 mouse fibroblasts stably expressing ΔF508-CFTR are used for optical measurements of membrane potential. The cells are maintained at 37° C. in 5% CO2 and 90% humidity in Dulbecco's modified Eagle's medium supplemented with 2 mM glutamine, 10% fetal bovine serum, 1×NEAA, β-ME, 1× pen/strep, and 25 mM HEPES in 175 cm^2 culture flasks. For all optical assays, the cells were seeded at 30,000/well in 384-well matrigel-coated plates and cultured for 2 hrs at 37° C. before culturing at 27° C. for 24 hrs for the potentiator assay. For the correction assays, the cells are cultured at 27° C. or 37° C. with and without compounds for 16-24 hours Electrophysiological Assays for assaying ΔF508-CFTR modulation properties of compounds

T1 sequence (P13569 with tags, fused parts or gaps DEL508-508): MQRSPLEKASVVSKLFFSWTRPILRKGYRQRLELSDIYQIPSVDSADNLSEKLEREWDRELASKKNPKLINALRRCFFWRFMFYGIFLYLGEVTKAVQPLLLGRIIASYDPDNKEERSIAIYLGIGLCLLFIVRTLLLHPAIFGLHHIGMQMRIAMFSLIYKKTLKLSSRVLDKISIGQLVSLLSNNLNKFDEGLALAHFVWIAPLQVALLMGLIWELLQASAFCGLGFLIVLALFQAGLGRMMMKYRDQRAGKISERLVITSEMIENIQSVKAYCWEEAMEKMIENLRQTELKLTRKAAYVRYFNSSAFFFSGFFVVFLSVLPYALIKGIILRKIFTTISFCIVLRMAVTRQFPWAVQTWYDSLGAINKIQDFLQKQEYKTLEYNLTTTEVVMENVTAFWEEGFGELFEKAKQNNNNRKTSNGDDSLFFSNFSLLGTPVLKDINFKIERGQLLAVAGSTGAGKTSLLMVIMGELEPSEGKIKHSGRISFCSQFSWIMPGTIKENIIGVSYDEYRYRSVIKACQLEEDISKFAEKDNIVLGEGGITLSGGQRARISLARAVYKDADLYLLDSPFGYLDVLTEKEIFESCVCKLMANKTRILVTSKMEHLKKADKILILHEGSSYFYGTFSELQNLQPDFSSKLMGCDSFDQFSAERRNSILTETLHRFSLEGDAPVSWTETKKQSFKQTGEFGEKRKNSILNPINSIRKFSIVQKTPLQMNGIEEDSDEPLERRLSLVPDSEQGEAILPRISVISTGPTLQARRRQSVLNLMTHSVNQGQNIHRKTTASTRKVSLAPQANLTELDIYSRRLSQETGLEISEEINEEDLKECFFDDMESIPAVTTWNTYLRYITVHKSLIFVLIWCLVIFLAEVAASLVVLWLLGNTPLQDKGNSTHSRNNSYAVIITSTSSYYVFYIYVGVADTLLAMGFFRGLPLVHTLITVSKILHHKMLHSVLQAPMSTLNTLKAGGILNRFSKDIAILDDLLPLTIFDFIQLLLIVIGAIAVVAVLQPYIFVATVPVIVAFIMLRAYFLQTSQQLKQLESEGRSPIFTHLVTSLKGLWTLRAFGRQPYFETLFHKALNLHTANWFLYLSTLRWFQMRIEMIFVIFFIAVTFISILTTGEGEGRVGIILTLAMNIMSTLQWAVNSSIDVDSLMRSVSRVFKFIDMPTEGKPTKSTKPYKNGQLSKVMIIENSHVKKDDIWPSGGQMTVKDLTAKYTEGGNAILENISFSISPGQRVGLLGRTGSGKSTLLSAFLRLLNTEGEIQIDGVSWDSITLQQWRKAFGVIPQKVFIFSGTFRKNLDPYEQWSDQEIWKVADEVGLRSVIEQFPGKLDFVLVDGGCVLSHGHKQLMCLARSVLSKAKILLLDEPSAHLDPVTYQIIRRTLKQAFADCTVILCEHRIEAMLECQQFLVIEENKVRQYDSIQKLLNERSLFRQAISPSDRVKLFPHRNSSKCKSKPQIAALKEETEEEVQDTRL

Row | EC50 | Emax | Structure (SMILES)
1 | 2000 to 5000 nM | 50 to 100% | Cc1ccc(NC(=O)C2(c3ccc4c(c3)OC(F)(F)O4)CC2)nc1-c1c[nH]c(=O)c(C(=O)O)c1 [Compound 23]
2 | < 2000 nM | > 100% | Cc1cc(NC(=O)C2(c3ccc4c(c3)OC(F)(F)O4)CC2)nc(-c2ccc(=O)[nH]c2C)c1C [Compound 108]
3 | < 2000 nM | 50 to 100% | COc1ncc(C)cc1-c1nc(NC(=O)C2(c3ccc4c(c3)OC(F)(F)O4)CC2)ccc1C [Compound 8]
4 | < 2000 nM | > 100% | COc1cc(C)c(-c2nc(NC(=O)C3(c4ccc5c(c4)OC(F)(F)O5)CC3)cc(C)c2C)cn1 [Compound 89]
5 | < 2000 nM | > 100% | Cc1ccc(NC(=O)C2(c3ccc4c(c3)OC(F)(F)O4)CC2)nc1-c1cc(F)c[nH]c1=O [Compound 82]
6 | < 2000 nM | 50 to 100% | Cc1ccc(NC(=O)C2(c3ccc4c(c3)OC(F)(F)O4)CC2)nc1-c1cccc(=O)[nH]1 [Compound 50]
7 | < 2000 nM | 50 to 100% | Cc1cc(NC(=O)C2(c3ccc4c(c3)CCO4)CC2)nc(-c2cc[nH]c(=O)c2)c1 [Compound 70]
8 | < 2000 nM | 50 to 100% | Cc1ccc(NC(=O)C2(c3ccc4c(c3)OCCO4)CC2)nc1-c1c[nH]c(=O)c(C)c1 [Compound 60]
9 | < 2000 nM | > 100% | COc1ccc(-c2nc(NC(=O)C3(c4ccc5c(c4)OC(F)(F)O5)CC3)ccc2C)cn1 [Compound 37]
10 | < 2000 nM | > 100% | COc1ncc(-c2nc(NC(=O)C3(c4ccc5c(c4)OC(F)(F)O5)CC3)ccc2C)cc1NC(C)=O [Compound 33]
11 | < 2000 nM | 50 to 100% | O=C(Nc1ccc(Cl)c(-c2ccc(=O)[nH]c2)n1)C1(c2ccc3c(c2)OC(F)(F)O3)CC1 [Compound 22]
12 | < 2000 nM | > 100% | Cc1cc(NC(=O)C2(c3ccc4c(c3)OC(F)(F)O4)CC2)nc(-c2cc[nH]c(=O)c2)c1C [Compound 67]
13 | < 2000 nM | 50 to 100% | Cc1c[nH]c(=O)c(-c2nc(NC(=O)C3(c4ccc5c(c4)OC(F)(F)O5)CC3)ccc2C)c1 [Compound 31]
14 | < 2000 nM | 50 to 100% | Cc1ccc(NC(=O)C2(c3ccc4c(c3)OC(F)(F)O4)CC2)nc1-c1cc[nH]c(=O)c1 [Compound 44]
15 | < 2000 nM | > 100% | COc1ncccc1-c1nc(NC(=O)C2(c3ccc4c(c3)CCO4)CC2)cc(C)c1C [Compound 100]
16 | < 2000 nM | 50 to 100% | Cc1cc(NC(=O)C2(c3ccc4c(c3)CCO4)CC2)nc(-c2ccc[nH]c2=O)c1 [Compound 69]
17 | < 2000 nM | 50 to 100% | Cc1ccc(NC(=O)C2(c3ccc4c(c3)OC(F)(F)O4)CC2)nc1-c1c[nH]c(=O)c(F)c1 [Compound 39]
18 | < 2000 nM | > 100% | COc1ccc(-c2nc(NC(=O)C3(c4ccc5c(c4)OC(F)(F)O5)CC3)ccc2Cl)cn1 [Compound 24]
19 | 2000 to 5000 nM | < 50% | Cc1ccc(NC(=O)C2(c3ccc4c(c3)OC(F)(F)O4)CC2)nc1-c1ccc(=O)n(CC(=O)NC#N)c1 [Compound 74]
20 | < 2000 nM | > 100% | Cc1cc(-c2nc(NC(=O)C3(c4ccc5c(c4)OC(F)(F)O5)CC3)ccc2C)cc(=O)[nH]1 [Compound 106]
21 | < 2000 nM | > 100% | COc1cc(C)c(-c2nc(NC(=O)C3(c4ccc5c(c4)OC(F)(F)O5)CC3)ccc2C)cn1 [Compound 18]
22 | < 2000 nM | 50 to 100% | COc1cccc(C2(C(=O)Nc3ccc(C)c(-c4c[nH]c(=O)c(C)c4)n3)CC2)c1 [Compound 63]
23 | < 2000 nM | 50 to 100% | COc1ccc(C2(C(=O)Nc3ccc(C)c(-c4cccnc4OC)n3)CC2)cc1 [Compound 7]

Row | EC50 | Emax | Structure (SMILES)
24 | < 2000 nM | > 100% | COc1ccc(-c2nc(NC(=O)C3(c4ccc5c(c4)OC(F)(F)O5)CC3)cc(C)c2C)c(C)n1 [Compound 103]
25 | < 2000 nM | 50 to 100% | CCc1ccc(NC(=O)C2(c3ccc4c(c3)OC(F)(F)O4)CC2)nc1-c1ccc(=O)[nH]c1 [Compound 5]
26 | < 2000 nM | > 100% | Cc1cc(NC(=O)C2(c3ccc4c(c3)OC(F)(F)O4)CC2)nc(-c2c[nH]c(=O)c(C)c2)c1 [Compound 107]
27 | < 2000 nM | 50 to 100% | CC(=O)Nc1cc(-c2nc(NC(=O)C3(c4ccc5c(c4)OC(F)(F)O5)CC3)ccc2C)c[nH]c1=O [Compound 4]
28 | < 2000 nM | > 100% | COc1ncc(-c2nc(NC(=O)C3(c4ccc5c(c4)OC(F)(F)O5)CC3)ccc2C)cc1N [Compound 9]
29 | < 2000 nM | > 100% | COc1ccc(C2(C(=O)Nc3ccc(C)c(-c4ccnc(OC)c4)n3)CC2)cc1 [Compound 45]
30 | < 2000 nM | > 100% | COc1ccc(-c2cc(C)cc(NC(=O)C3(c4ccc5c(c4)OC(F)(F)O5)CC3)n2)cn1 [Compound 38]
31 | < 2000 nM | > 100% | Cc1cc(NC(=O)C2(c3ccc4c(c3)OC(F)(F)O4)CC2)nc(-c2ccc(=O)[nH]c2)c1C#N [Compound 96]
32 | < 2000 nM | > 100% | COc1ncccc1-c1cccc(NC(=O)C2(c3ccc4c(c3)OCO4)CC2)n1 [Compound 93]
33 | < 2000 nM | > 100% | COc1ncccc1-c1cc(C)cc(NC(=O)C2(c3ccc4c(c3)OC(F)(F)O4)CC2)n1 [Compound 48]
34 | < 2000 nM | 50 to 100% | Cc1ccc(NC(=O)C2(c3ccc(Cl)cc3)CC2)nc1-c1c[nH]c(=O)c(C)c1 [Compound 61]
35 | 2000 to 5000 nM | > 100% | COc1ccc(-c2cccc(NC(=O)C3(c4ccc5c(c4)OCO5)CC3)n2)cn1 [Compound 94]
36 | < 2000 nM | > 100% | COc1ccc(-c2nc(NC(=O)C3(c4ccc5c(c4)OC(F)(F)O5)CC3)cc(C)c2C)cn1 [Compound 57]
37 | < 2000 nM | 50 to 100% | Cc1ccc(NC(=O)C2(c3ccc4c(c3)OC(F)(F)O4)CC2)nc1-c1c[nH]c(=O)c(C#N)c1 [Compound 42]
38 | < 2000 nM | > 100% | Cc1cc(NC(=O)C2(c3ccc4c(c3)OC(F)(F)O4)CC2)nc(-c2cc[nH]c(=O)c2)c1 [Compound 19]
39 | < 2000 nM | > 100% | O=C(Nc1cccc(-c2ccc[nH]c2=O)n1)C1(c2ccc3c(c2)OC(F)(F)O3)CC1 [Compound 51]
40 | < 2000 nM | > 100% | Cc1ccc(NC(=O)C2(c3ccc4c(c3)OC(F)(F)O4)CC2)nc1-c1ccn(C)c(=O)c1 [Compound 41]
41 | < 2000 nM | < 50% | Cc1ccc(NC(=O)C2(c3ccc4c(c3)OC(F)(F)O4)CC2)nc1-c1ccn(CC(=O)O)c(=O)c1 [Compound 47]
42 | < 2000 nM | 50 to 100% | Cc1ccc(NC(=O)C2(c3ccc4c(c3)CCO4)CC2)nc1-c1ccc[nH]c1=O [Compound 84]
43 | < 2000 nM | 50 to 100% | COc1cccc(-c2nc(NC(=O)C3(c4ccc5c(c4)OC(F)(F)O5)CC3)ccc2C)n1 [Compound 35]
44 | 2000 to 5000 nM | 50 to 100% | CNC(=O)c1cc(-c2nc(NC(=O)C3(c4ccc5c(c4)OC(F)(F)O5)CC3)ccc2C)c[nH]c1=O [Compound 32]
45 | < 2000 nM | > 100% | Cc1ccc(NC(=O)C2(c3ccc4c(c3)OC(F)(F)O4)CC2)nc1-c1ccc(=O)[nH]c1C [Compound 40]
